Source: PubChem BioAssay AID256 (DTP/NCI, 2004)
Values joined by “and” are separate entries in the source; they are usually repeats but may differ in a detail not shown here. Equal values may be shown once. Inconclusive results and toxic doses are left out. How the source made its calls: active means survival T/C of 150% or more; inactive means T/C below 125% in these data.

Tested on: CD2F1 mice, L1210 leukemia ip, survival T/C
Assay: NCI In Vivo Anticancer Drug Screen. Data for tumor model L1210 Leukemia (intraperitoneal) in CD2F1 (CDF1) mice
Details: higher = longer survival
Procedure, shortened: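 Vehicle-treated tumor-bearing mice served as controls (C) for compound-treated mice (T). Reported figure is T divided by C.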

[1] = endpoint: mean survival time, dose: 100.0 mg/kg/injection, schedule: Q01DX009 (ip), vehicle: saline with Tween-80
[2] = endpoint: mean survival time, dose: 200.0 mg/kg/injection, schedule: Q01DX009 (ip), vehicle: saline with Tween-80
[3] = endpoint: mean survival time, dose: 400.0 mg/kg/injection, schedule: Q01DX009 (ip), vehicle: saline with Tween-80
[4] = endpoint: mean survival time, dose: 100.0 mg/kg/injection, schedule: Q04DX002 (ip), vehicle: saline with Tween-80
[5] = endpoint: mean survival time, dose: 100.0 mg/kg/injection, schedule: Q04DX003 (ip), vehicle: saline with Tween-80
[6] = endpoint: mean survival time, dose: 400.0 mg/kg/injection, schedule: Q04DX003 (ip), vehicle: saline with Tween-80
[7] = endpoint: mean survival time, dose: 50.0 mg/kg/injection, schedule: Q01DX009 (ip), vehicle: saline with Tween-80
[8] = endpoint: mean survival time, dose: 200.0 mg/kg/injection, schedule: Q04DX003 (ip), vehicle: saline with Tween-80

Measured: T/C

CCCCCCCC(=O)Nc1ccc(C)cc1C
inactive: [1] 91 % of control | [2] 98 % of control | [3] 91 % of control

CC(=NC(c1ccccc1)c1ccccc1)N(C)C
inactive: endpoint: mean survival time, dose: 25.0 mg/kg/injection, schedule: Q04DX002 (ip), vehicle: saline with Tween-80 102 % of control | endpoint: mean survival time, dose: 50.0 mg/kg/injection, schedule: Q04DX002 (ip), vehicle: saline with Tween-80 98 % of control | [4] 102 % of control

CCC(/C=C/C(C)C1CCC2C3CCC45CC4CCC5(C)C3CCC12C)C(C)C (stereo not given)
inactive: [5] 97 % of control | [6] 87 % of control

COc1cc(Cl)ccc1NC(=O)Oc1ccc(Cl)cc1Br
inactive: [7] 96 % of control | [1] 96 % of control | [2] 96 % of control

CC(=O)Nc1sc2c(c1C#N)CCCC2
inactive: [5] 93 % of control | [8] 93 % of control | [6] 101 % of control

O=C(NCCNC(=O)Nc1ccccc1Cl)Nc1ccccc1Cl
inactive: [4] 104 % of control | endpoint: mean survival time, dose: 200.0 mg/kg/injection, schedule: Q04DX002 (ip), vehicle: saline with Tween-80 97 % of control | endpoint: mean survival time, dose: 400.0 mg/kg/injection, schedule: Q04DX002 (ip), vehicle: saline with Tween-80 101 % of control

CCCNC(=O)OCC#CC#CCOC(=O)NCCC
inactive: endpoint: mean survival time, dose: 100.0 mg/kg/injection, schedule: Q04DX003 (ip), vehicle: Klucel (hydroxypropylcellulose) (HPC) 94 % of control | endpoint: mean survival time, dose: 200.0 mg/kg/injection, schedule: Q04DX003 (ip), vehicle: Klucel (hydroxypropylcellulose) (HPC) 98 % of control | endpoint: mean survival time, dose: 400.0 mg/kg/injection, schedule: Q04DX003 (ip), vehicle: Klucel (hydroxypropylcellulose) (HPC) 96 % of control

c1cnc(NCCSSCCNc2ncccn2)nc1
inactive: [1] 91 % of control | [5] 97 % of control | [2] 89 % of control | [8] 97 % of control | [3] 91 % of control | [6] 96 % of control

CCC(=O)c1ccc(O)c(O)c1
inactive: endpoint: mean survival time, dose: 25.0 mg/kg/injection, schedule: Q01DX009 (ip), vehicle: saline with Tween-80 95 % of control | [7] 96 % of control | [1] 96 % of control and 100 % of control | endpoint: mean survival time, dose: 100.0 mg/kg/injection, schedule: Q04DX003 (ip), vehicle: saline 96 % of control | endpoint: mean survival time, dose: 200.0 mg/kg/injection, schedule: Q04DX003 (ip), vehicle: saline 105 % of control | endpoint: mean survival time, dose: 400.0 mg/kg/injection, schedule: Q04DX003 (ip), vehicle: saline 92 % of control

CN(/N=N/c1nc[nH]c1C(N)=O)C(C)(C)C
inactive: endpoint: mean survival time, dose: 18.75 mg/kg/injection, schedule: Q01DX009 (ip), vehicle: Klucel (hydroxypropylcellulose) (HPC) 96 % of control | endpoint: mean survival time, dose: 37.5 mg/kg/injection, schedule: Q01DX009 (ip), vehicle: Klucel (hydroxypropylcellulose) (HPC) 110 % of control | endpoint: mean survival time, dose: 75.0 mg/kg/injection, schedule: Q01DX009 (ip), vehicle: Klucel (hydroxypropylcellulose) (HPC) 109 % of control | endpoint: mean survival time, dose: 150.0 mg/kg/injection, schedule: Q01DX009 (ip), vehicle: Klucel (hydroxypropylcellulose) (HPC) 109 % of control | endpoint: mean survival time, dose: 300.0 mg/kg/injection, schedule: Q01DX009 (ip), vehicle: Klucel (hydroxypropylcellulose) (HPC) 103 % of control

O=C1C(n2ccc(=O)[nH]c2=O)CCN1CCO (stereo not given)
inactive: endpoint: mean survival time, dose: 100.0 mg/kg/injection, schedule: Q04DX003 (ip), vehicle: other 102 % of control | endpoint: mean survival time, dose: 200.0 mg/kg/injection, schedule: Q04DX003 (ip), vehicle: other 102 % of control | endpoint: mean survival time, dose: 400.0 mg/kg/injection, schedule: Q04DX003 (ip), vehicle: other 96 % of control

O=C1N[C@H]2[C@H](O)[C@H](O)[C@@H](O)[C@H](O)[C@@H]2c2cc3c(c(O)c21)OCO3
inactive: endpoint: median survival time, dose: 0.38 mg/kg/injection, schedule: Q01DX009 (ip), vehicle: saline + alcohol 120 % of control | endpoint: median survival time, dose: 0.75 mg/kg/injection, schedule: Q01DX009 (ip), vehicle: saline + alcohol 122 % of control | endpoint: median survival time, dose: 1.5 mg/kg/injection, schedule: Q01DX009 (ip), vehicle: saline + alcohol 121 % of control

Nc1cccc2scnc12 (tested in a mixture with another compound)
inactive: [5] 104 % of control | [8] 98 % of control | [6] 95 % of control

Nc1nc(N)c2c(n1)NCN(CCc1ccccc1Cl)C2
inactive: endpoint: mean survival time, dose: 0.75 mg/kg/injection, schedule: Q01DX009 (ip), vehicle: distilled water + Tween-80 93 % of control | endpoint: mean survival time, dose: 1.5 mg/kg/injection, schedule: Q01DX009 (ip), vehicle: distilled water + Tween-80 98 % of control | endpoint: mean survival time, dose: 3.0 mg/kg/injection, schedule: Q01DX009 (ip), vehicle: distilled water + Tween-80 94 % of control | endpoint: mean survival time, dose: 6.0 mg/kg/injection, schedule: Q01DX009 (ip), vehicle: distilled water + Tween-80 100 % of control | endpoint: mean survival time, dose: 12.0 mg/kg/injection, schedule: Q01DX009 (ip), vehicle: distilled water + Tween-80 94 % of control | endpoint: mean survival time, dose: 24.0 mg/kg/injection, schedule: Q01DX009 (ip), vehicle: distilled water + Tween-80 102 % of control | endpoint: mean survival time, dose: 48.0 mg/kg/injection, schedule: Q01DX009 (ip), vehicle: distilled water + Tween-80 96 % of control | endpoint: mean survival time, dose: 80.0 mg/kg/injection, schedule: Q01DX009 (ip), vehicle: distilled water + Tween-80 96 % of control

O=C1C=CC(=NCl)C=C1
inactive: endpoint: mean survival time, dose: 2.5 mg/kg/injection, schedule: Q04DX003 (ip), vehicle: saline with Tween-80 100 % of control | endpoint: mean survival time, dose: 5.0 mg/kg/injection, schedule: Q04DX003 (ip), vehicle: saline with Tween-80 110 % of control

COC(=O)c1ccn2c1CCC2
inactive: endpoint: mean survival time, dose: 25.0 mg/kg/injection, schedule: Q01DX009 (ip), vehicle: Klucel (hydroxypropylcellulose) (HPC) 92 % of control | endpoint: mean survival time, dose: 50.0 mg/kg/injection, schedule: Q01DX009 (ip), vehicle: Klucel (hydroxypropylcellulose) (HPC) 87 % of control | endpoint: mean survival time, dose: 100.0 mg/kg/injection, schedule: Q01DX009 (ip), vehicle: Klucel (hydroxypropylcellulose) (HPC) 91 % of control | endpoint: mean survival time, dose: 200.0 mg/kg/injection, schedule: Q01DX009 (ip), vehicle: Klucel (hydroxypropylcellulose) (HPC) 97 % of control | endpoint: mean survival time, dose: 400.0 mg/kg/injection, schedule: Q01DX009 (ip), vehicle: Klucel (hydroxypropylcellulose) (HPC) 87 % of control

O=C(Nc1ccc(F)cc1)Nc1ccc(Cl)cc1
inactive: [1] 97 % of control | [2] 100 % of control | [3] 103 % of control

C=CC1CC(=O)N1Cc1ccccc1 (stereo not given)
inactive: [5] 97 % of control | [8] 92 % of control | [6] 92 % of control

C1SCc2c1c1c(c3c2CSC3)CSC1
inactive: endpoint: mean survival time, dose: 100.0 mg/kg/injection, schedule: Q01DX001 (ip), vehicle: saline with Tween-80 87 % of control | endpoint: mean survival time, dose: 400.0 mg/kg/injection, schedule: Q01DX001 (ip), vehicle: saline with Tween-80 87 % of control

S=c1nc[nH]c2c1ncn2CN1CCCCC1
inactive: [2] 116 % of control
